From patent EP0603240B1, “SAFENING HERBICIDAL PYRAZOLYLSULFONYLUREAS” (priority 1991, dated 1993)

Key:
Format in all cases: in vivo
[1] = system: barnyardgrass (Echinochloa crusgalli); experiment: Example 4, Procedure I: Antidote Nos. 15 and 16 against Herbicide No. 1
Method: (§1) Containers were filled and compacted with a fumigated silt loam top soil to a depth of about 1.3 cm from the top of the container. A first container was designated as an untreated control, a second container was designated as a herbicide control, and a third container was designated as a herbicide + antidote test container. Each of the containers was seeded with a crop species. A measured amount of herbicide dispersed or dissolved in acetone was applied to a measured quantity of soil. To this same quantity of soil treated with herbicide, there was added a measured amount of antidote dispersed or dissolved in acetone. The quantity of soil treated with the herbicide and antidote was thoroughly mixed to incorporate the herbicide and antidote in the soil uniformly. The seed bed in the third container of soil was covered with the soil treated with the herbicide and antidote and the container was leveled. For each test series, the seed beds of the first and second containers were likewise covered by soil layers. the cover layer of the first container was not treated with herbicide or antidote.
(§2) The containers were then placed on a bench in a greenhouse and sub-irrigated as required for the duration of the test. […] Plant response is measured in terms of percent injury. Antidote efficacy is indicated as the difference in plant injury by the herbicide(s) without the antidote and with the antidote.
(§3) In the series of greenhouse tests described below, for routine screening purposes the herbicide/antidote compositions were tested in crop/weed combinations involving corn as the crop and either or both of the weeds barnyardgrass (Echinochloa crusgalli), a monocotyledonous weed, and velvetleaf (Abutilon theophrasti), a dicotyledonous weed. In the tables below, these weeds are indicated by the symbols "BYG" and "VL", respectively.
(§4) This example describes tests with Antidote Nos. 15 and 16 to safen Herbicide No. 1 according to Procedure I using corn and the weeds barnyardgrass and velvetleaf as the test plants.

[2] = system: velvetleaf (Abutilon theophrasti); experiment: as above
Method: as §1, §2, §3, §4

corn = experiment: Example 1, greenhouse Procedure II: antidotes against Herbicide No. 1
Method: as §1, §2
This procedure is the same as Procedure I, but modified in the manner that after incorporation of the chemicals (herbicide and antidote) the containers with the covered seedbed were treated with an initial overhead irrigation equivalent to 0.6 cm rainfall, then subsequently sub-irrigated as required on greenhouse benches.
as §3
This example was designed to investigate the antidotal efficacy of a plurality of antidotes against Herbicide No. 1 in corn in the presence of barnyard grass and velvetleaf. The antidotes used in this example were Antidote Nos. 1-10, 12, 13 and 15.
The test in this example was conducted as described above for Procedure II. The antidotes were applied to the soil cover layer by pipet after spraying on the herbicide followed by incorporation and simulated rain.

[3] = system: barnyardgrass (Echinochloa crusgalli); experiment: Example 5, Procedure I: Herbicide No. 1 + alachlor (No. 7) with Antidote Nos. 15 and 16
Method: as §1, §2, §3, §4
(§5) In the tests described in this example, the same procedure described in Example 4 was performed simultaneously therewith and under the same conditions, except that a co-herbicide, alachlor, was included in the same composition with Herbicide No. 1 and Antidote Nos. 15 and 16. Alachlor (Herbicide No. 7 herein) is the active ingredient in the commercial product LASSO® herbicide.

[4] = system: velvetleaf (Abutilon theophrasti); experiment: as above
Method: as §1, §2, §3, §4, §5

[5] = Herb. No. 1 4.48 kg/ha + antidote 0.56 kg/ha
[6] = Herb. No. 1 4.48 kg/ha + antidote 2.24 kg/ha
[7] = Herb. No. 1 6.72 kg/ha + antidote 0.56 kg/ha
[8] = Herb. No. 1 6.72 kg/ha + antidote 2.24 kg/ha
[9] = Herbicide No.1 4.48 + No.7 0.56 kg/ha + antidote 0.56 kg/ha
[10] = Herbicide No.1 4.48 + No.7 0.56 kg/ha + antidote 2.24 kg/ha
[11] = Herbicide No.1 4.48 + No.7 2.24 kg/ha + antidote 0.56 kg/ha
[12] = Herbicide No.1 4.48 + No.7 2.24 kg/ha + antidote 2.24 kg/ha
[13] = Herbicide No.1 6.72 + No.7 0.56 kg/ha + antidote 0.56 kg/ha
[14] = Herbicide No.1 6.72 + No.7 0.56 kg/ha + antidote 2.24 kg/ha
[15] = Herbicide No.1 6.72 + No.7 2.24 kg/ha + antidote 0.56 kg/ha
[16] = Herbicide No.1 6.72 + No.7 2.24 kg/ha + antidote 2.24 kg/ha
[17] = Herb. No. 1 4.48 kg/ha, no antidote, average of two replicates
[18] = Herb. No. 1 6.72 kg/ha, no antidote, average of two replicates
[19] = Herbicide No.1 4.48 + No.7 0.56 kg/ha, no antidote
[20] = Herbicide No.1 4.48 + No.7 2.24 kg/ha, no antidote
[21] = Herbicide No.1 6.72 + No.7 0.56 kg/ha, no antidote
[22] = Herbicide No.1 6.72 + No.7 (alachlor) 2.24 kg/ha, no antidote

SMILES: CC1(C)OC(c2ccco2)CN1C(=O)C(Cl)Cl (stereo not drawn) [compound 15]
- % Injury BYG [1, 5]: 95%
- % Injury BYG [1, 6]: 90%
- % Injury BYG [1, 7]: 90%
- % Injury BYG [1, 8]: 90%
- % Injury VL [2, 5]: 95%
- % Injury VL [2, 6]: 95%
- % Injury VL [2, 7]: 95%
- % Injury VL [2, 8]: 95%
- % Injury Corn (corn; Herb. No. 1 0.14 kg/ha + antidote 2.24 kg/ha): 5%
- % Injury Corn (corn; Herb. No. 1 0.56 kg/ha + antidote 2.24 kg/ha): 5%
- % Injury BYG [3, 9]: 99%
- % Injury BYG [3, 10]: 95%
- % Injury BYG [3, 11]: 100%
- % Injury BYG [3, 12]: 100%
- % Injury BYG [3, 13]: 99%
- % Injury BYG [3, 14]: 99%
- % Injury BYG [3, 15]: 100%
- % Injury BYG [3, 16]: 100%
- % Injury VL [4, 9]: 95%
- % Injury VL [4, 10]: 95%
- % Injury VL [4, 11]: 98%
- % Injury VL [4, 12]: 95%
- % Injury VL [4, 13]: 95%
- % Injury VL [4, 14]: 99%
- % Injury VL [4, 15]: 99%
- % Injury VL [4, 16]: 95%

SMILES: COC(=O)c1c(Cl)nn(C)c1S(=O)(=O)NC(=O)Nc1nc(OC)cc(OC)n1 [Herbicide No. 1]
- % Injury BYG [1, 17]: 80%
- % Injury BYG [1, 18]: 90%
- % Injury VL [2, 17]: 90%
- % Injury VL [2, 18]: 90%
- % Injury Corn (corn; Herb. No. 1 0.14 kg/ha, no antidote): 5%
- % Injury BYG [3, 19]: 99%
- % Injury BYG [3, 20]: 100%
- % Injury BYG [3, 21]: 99%
- % Injury BYG [3, 22]: 100%
- % Injury VL [4, 19]: 98%
- % Injury VL [4, 20]: 98%
- % Injury VL [4, 21]: 98%
- % Injury VL [4, 22]: 98%
